These are literature values, as cited in patent publication US12023406B2, “Gastric residence systems with release rate-modulating films” (Lyndra Therapeutics, Inc., priority 2017, dated 2024).

For this data set the following is noted: gastric pH range.

Consider `Cc1nc2n(c(=O)c1CCN1CCC(c3noc4cc(F)ccc34)CC1)CCCC2` [risperidone], for which the “solubility at pH 1.5 versus pH 4.8” value was “significantly higher at the more acidic end of the gastric pH range”.
